Literature values in patent US9402854B2, “Pharmaceutical composition” (Cipla Limited, priority 2012, dated 2016).

Settings: versus racemic formoterol (contains both (S,S) and (R,R) enantiomers)

## COc1ccc(C[C@@H](C)NC[C@H](O)c2ccc(O)c(NC=O)c2)cc1 [Arformoterol]
  potency relative to racemic formoterol: two-fold greater potency
